Residues, ends and D or L forms follow the SMILES beside them.
Assays:
[1] = test system: HepG2.2.15 cells; assay: MTT cytotoxicity assay, HepG2.2.15; assay type: cell-based, human; details: 48 h, 0 to 200 μM, five repetitions
Protocol: Cells were seeded in 96-well plates (10^4 cells per well) and cultured in DMEM containing 10% FBS in 5% CO2 at 37 °C for 12 h. Then, peptides were added to the medium in a serial of concentrations. The concentrations ranged from 0 to 200 μM. Five repetitions were set for each concentration. After 48 h of incubation, 20 μL of MTT solution (5 mg/mL in PBS buffer; Invitrogen, Foster, CA, USA) was added to the medium in each well, and the plate was incubated in 5% CO2 at 37 °C for 4 h. Then, the medium was replaced by 100 μL DMSO. To completely dissolve the precipitated crystal purple formazan, the plate was then gently shaken for 10 min at room temperature. The absorbance at a wavelength of 570 nm was measured using a microplate reader (BioTek, Winooski, VT, USA).

[2] = test system: human erythrocytes; assay: Hemolysis assay; assay type: cell-based; details: 37 °C, 1 h, absorbance at 570 nm, 0 to 200 μM
Protocol: Erythrocytes were obtained from fresh human blood by centrifugation for 10 min at 1000× g. After washed by HEPES buffer for three times, erythrocytes were resuspended in normal saline and seeded in 96-well plates (10^7 cells per well). BmKDfsin4 was added in a serial of concentrations, 0.1% triton-X100 was used as positive control and normal saline was used as negative control. After incubated at 37 °C for 1 h, the supernatants were collected by centrifugation for 10 min at 1000× g. The absorbance of hemoglobin was measured at a wavelength of 570 nm.

[3] = test system: HBsAg; assay: Western blot of intracellular HBsAg in HepG2.2.15 cell lysates; assay type: cell-based, Hepatitis B virus; details: 10 μM, HepG2.2.15 cell lysate
Protocol: (§1) Cells were resuspended with radioimmunoprecipitation (RIPA) assay buffer (50 mM Tris-HCl (pH 7.5), 150 mM sodium chloride, 1% Nonidet P40, and 0.5% sodium deoxycholate) with phenylmethylsulfonyl fluoride (PMSF) and incubated on ice for 30 min for fully lysis. Cell lysates were electrophoresed in sodium dodecyl sulfate-polyacrylamide (SDS) gels and transferred to nitrocellulose membranes (Millipore, Darmstadt, Germany). The antibodies used for probing were as follows: mouse monoclonal anti-HBsAg (1:200 dilution, Abcam, Cambridge, UK), rabbit polyclonal anti-HBV core (1:500 dilution, Dako-Cytomation, Carpinteria, CA, USA), mouse monoclonal anti-Hep B xAg (1:200 dilution, Santa Cruz Biotechnology, Dallas, TX, USA), mouse monoclonal anti-Hep B Pol (1:200 dilution, Santa Cruz Biotechnology, Dallas, TX, USA), and anti-β-actin (1:5000 dilution, Santa Cruz Biotechnology, Dallas, TX, USA) were used as primary antibodies, and the secondary antibodies were conjugated to horseradish peroxidase (HRP).

[4] = test system: HBx protein; assay: Western blot of intracellular HBx protein in HepG2.2.15 cell lysates; assay type: cell-based, Hepatitis B virus; details: HepG2.2.15 cell lysate
Protocol: as §1

[5] = test system: HBV core; assay: Western blot of intracellular HBV core in HepG2.2.15 cell lysates; assay type: cell-based, Hepatitis B virus; details: HepG2.2.15 cell lysate
Protocol: as §1

[6] = test system: HBV RT; assay: Western blot of intracellular HBV RT in HepG2.2.15 cell lysates; assay type: cell-based, Hepatitis B virus; details: HepG2.2.15 cell lysate
Protocol: as §1

CC[C@H](C)[C@@H]1NC(=O)[C@H](CO)NC(=O)[C@H](CCC(N)=O)NC(=O)[C@@H]2CSSC[C@@H](C(=O)N[C@@H](Cc3ccc(O)cc3)C(=O)N[C@@H](CCCNC(=N)N)C(=O)O)NC(=O)[C@H](C(C)C)NC(=O)[C@@H]3CSSC[C@H](NC(=O)[C@H](CCC(N)=O)NC(=O)CNC(=O)[C@H](CCC(N)=O)NC(=O)[C@H](CC(N)=O)NC(=O)[C@H](Cc4ccccc4)NC(=O)[C@@H]4CCCN4C(=O)[C@@H](NC(=O)CNC(=O)[C@H](Cc4ccccc4)NC(=O)CN)CSSC[C@H](NC(=O)[C@H](Cc4ccc(O)cc4)NC(=O)CNC(=O)CNC(=O)[C@H](CCCNC(=N)N)NC(=O)[C@H](CCCNC(=N)N)NC(=O)[C@H](CCCNC(=N)N)NC1=O)C(=O)N[C@@H](CC(=O)O)C(=O)NCC(=O)N[C@@H](Cc1ccccc1)C(=O)N[C@@H](CC(C)C)C(=O)N[C@@H](CCCCN)C(=O)N[C@@H]([C@@H](C)O)C(=O)N[C@@H](CCCNC(=N)N)C(=O)N3)C(=O)N[C@@H](Cc1c[nH]cn1)C(=O)N[C@@H](CCCCN)C(=O)N[C@@H](Cc1c[nH]cn1)C(=O)N2 [BmKDfsin4] (HELM PEPTIDE1{G.F.G.C.P.F.N.Q.G.Q.C.H.K.H.C.Q.S.I.R.R.R.G.G.Y.C.D.G.F.L.K.T.R.C.V.C.Y.R}$PEPTIDE1,PEPTIDE1,4:R3-25:R3|PEPTIDE1,PEPTIDE1,11:R3-33:R3|PEPTIDE1,PEPTIDE1,15:R3-35:R3$$$V2.0; N-terminus and C-terminus assumed; bridges inferred)
CC50 (50% cytotoxicity concentration), HepG2.2.15 [1]: 167.82 µM | HC50 (50% hemolysis concentration) [2]: 66.85 µM | intracellular HBsAg level [3]: almost undetectable | intracellular HBx protein level ([4]; 5 μM): only a slight band | intracellular HBx protein level ([4]; 10 μM): totally undetectable | inhibitory activity against intracellular HBV core [5]: significantly concentration-dependent inhibition | inhibitory activity against intracellular HBV RT [6]: significantly concentration-dependent inhibition
